Laboratory results: ChEMBL document CHEMBL5210121, “Affinity On-target Cellular Literature for EUbOPEN Chemogenomics Library wave 3” (2023)

How the values were obtained:
[1] = biological target: Dual specificity protein kinase CLK1 (Homo sapiens, UniProt P49759); assay: Affinity On-target Cellular interaction (NanoBRET assay (HEK293T cells)) EUB0000724a CLK1; design: mode of action Inhibitor, recommended concentration 1 uM
[2] = biological target: Epithelial discoidin domain-containing receptor 1 (Homo sapiens, UniProt Q08345); assay: Affinity On-target Cellular interaction (NanoBRET assay (HEK293T cells)) EUB0000156b DDR1; design: mode of action Negative control for DDR-TRK-1 (D2202-1), recommended concentration 1 uM
Sequence of Epithelial discoidin domain-containing receptor 1 (Q08345 whole entry, the tested form may be a part): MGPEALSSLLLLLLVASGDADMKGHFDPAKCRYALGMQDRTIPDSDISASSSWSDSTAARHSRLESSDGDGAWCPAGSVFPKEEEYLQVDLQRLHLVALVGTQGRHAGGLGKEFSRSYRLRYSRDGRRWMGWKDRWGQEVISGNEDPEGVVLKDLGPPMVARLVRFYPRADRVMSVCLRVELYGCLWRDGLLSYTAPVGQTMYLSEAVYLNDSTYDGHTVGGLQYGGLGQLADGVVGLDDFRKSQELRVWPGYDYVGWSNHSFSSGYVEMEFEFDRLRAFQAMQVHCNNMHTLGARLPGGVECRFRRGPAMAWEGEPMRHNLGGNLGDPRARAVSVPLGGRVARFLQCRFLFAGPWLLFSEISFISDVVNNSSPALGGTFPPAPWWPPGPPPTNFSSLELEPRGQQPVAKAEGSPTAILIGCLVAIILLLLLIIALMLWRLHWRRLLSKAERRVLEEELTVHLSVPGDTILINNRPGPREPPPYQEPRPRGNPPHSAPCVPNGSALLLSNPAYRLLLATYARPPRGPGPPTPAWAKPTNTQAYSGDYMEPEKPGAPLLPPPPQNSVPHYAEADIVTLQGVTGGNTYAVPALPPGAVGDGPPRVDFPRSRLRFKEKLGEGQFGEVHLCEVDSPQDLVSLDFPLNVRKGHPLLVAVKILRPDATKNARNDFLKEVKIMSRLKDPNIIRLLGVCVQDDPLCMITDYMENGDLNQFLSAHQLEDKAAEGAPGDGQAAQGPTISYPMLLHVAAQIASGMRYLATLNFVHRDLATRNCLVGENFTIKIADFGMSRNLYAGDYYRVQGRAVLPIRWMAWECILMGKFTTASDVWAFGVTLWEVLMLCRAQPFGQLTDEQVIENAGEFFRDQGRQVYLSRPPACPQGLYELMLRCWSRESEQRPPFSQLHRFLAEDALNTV

[3] = biological target: BDNF/NT-3 growth factors receptor (Homo sapiens, UniProt Q16620); assay: Affinity On-target Cellular interaction (NanoBRET assay (HEK293T cells)) EUB0000156b NTRK2; design: mode of action Negative control for DDR-TRK-1 (D2202-1), recommended concentration 1 uM
[4] = biological target: Discoidin domain-containing receptor 2 (Homo sapiens, UniProt Q16832); assay: Affinity On-target Cellular interaction (NanoBRET assay (HEK293T cells)) EUB0000156b DDR2; design: mode of action Negative control for DDR-TRK-1 (D2202-1), recommended concentration 1 uM
[5] = biological target: High affinity nerve growth factor receptor (Homo sapiens, UniProt P04629); assay: Affinity On-target Cellular interaction (NanoBRET assay (HEK293T cells)) EUB0000156b NTRK1; design: mode of action Negative control for DDR-TRK-1 (D2202-1), recommended concentration 1 uM
Protein AF-9 [6] = biological target: T1, Protein AF-9 (Homo sapiens, UniProt P42568)
T1 sequence (P42568 whole entry): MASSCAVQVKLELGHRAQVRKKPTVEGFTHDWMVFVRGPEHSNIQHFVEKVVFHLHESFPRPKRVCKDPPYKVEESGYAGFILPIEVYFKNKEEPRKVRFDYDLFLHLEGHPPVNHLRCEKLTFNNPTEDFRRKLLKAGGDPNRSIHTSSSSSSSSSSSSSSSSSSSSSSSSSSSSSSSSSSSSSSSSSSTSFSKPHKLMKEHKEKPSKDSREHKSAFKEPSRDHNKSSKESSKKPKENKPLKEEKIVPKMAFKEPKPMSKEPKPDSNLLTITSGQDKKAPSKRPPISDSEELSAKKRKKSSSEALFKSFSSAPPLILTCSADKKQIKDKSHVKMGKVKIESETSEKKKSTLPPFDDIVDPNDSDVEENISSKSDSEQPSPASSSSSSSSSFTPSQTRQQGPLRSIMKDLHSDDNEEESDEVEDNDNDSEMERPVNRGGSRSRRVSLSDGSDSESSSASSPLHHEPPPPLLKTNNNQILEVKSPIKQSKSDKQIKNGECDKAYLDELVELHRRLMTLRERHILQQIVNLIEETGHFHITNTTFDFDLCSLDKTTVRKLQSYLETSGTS

[7] = biological target: RAC-gamma serine/threonine-protein kinase (Homo sapiens, UniProt Q9Y243); assay: Affinity On-target Cellular interaction (NanoBRET assay (HEK293T cells)) EUB0000721a AKT3
[8] = biological target: RAC-beta serine/threonine-protein kinase (Homo sapiens, UniProt P31751); assay: Affinity On-target Cellular interaction (NanoBRET assay (HEK293T cells)) EUB0000721a AKT2
Sequence of RAC-beta serine/threonine-protein kinase (P31751 whole entry): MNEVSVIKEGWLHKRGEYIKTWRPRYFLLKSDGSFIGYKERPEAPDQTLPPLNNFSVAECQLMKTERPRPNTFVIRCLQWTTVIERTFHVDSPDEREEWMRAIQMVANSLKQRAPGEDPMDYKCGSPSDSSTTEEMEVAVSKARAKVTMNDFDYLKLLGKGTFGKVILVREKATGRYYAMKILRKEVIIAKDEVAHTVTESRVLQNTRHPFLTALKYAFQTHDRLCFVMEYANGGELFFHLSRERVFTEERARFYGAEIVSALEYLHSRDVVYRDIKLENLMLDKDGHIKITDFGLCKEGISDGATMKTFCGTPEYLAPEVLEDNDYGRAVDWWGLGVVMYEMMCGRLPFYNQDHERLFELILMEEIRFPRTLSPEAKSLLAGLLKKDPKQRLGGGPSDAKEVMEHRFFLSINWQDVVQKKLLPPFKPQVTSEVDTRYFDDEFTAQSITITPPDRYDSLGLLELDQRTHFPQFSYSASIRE

[9] = biological target: RAC-alpha serine/threonine-protein kinase (Homo sapiens, UniProt P31749); assay: Affinity On-target Cellular interaction (NanoBRET assay (HEK293T cells)) EUB0000721a AKT1
Protein AF-9 [10] = biological target: T1, Protein AF-9; assay: Affinity On-target Cellular interaction (NanoBRET assay (HEK293T cells)) EUB0000732a MLLT3; design: mode of action Negative control for PFI-6, recommended concentration 1 uM
[11] = biological target: Tyrosine-protein kinase JAK3 (Homo sapiens, UniProt P52333); assay: Affinity On-target Cellular interaction (NanoBRET assay (HEK293T cells)) EUB0000007b JAK3; design: mode of action Negative control for FM-381, recommended concentration 100 nM
Sequence of Tyrosine-protein kinase JAK3 (P52333 whole entry): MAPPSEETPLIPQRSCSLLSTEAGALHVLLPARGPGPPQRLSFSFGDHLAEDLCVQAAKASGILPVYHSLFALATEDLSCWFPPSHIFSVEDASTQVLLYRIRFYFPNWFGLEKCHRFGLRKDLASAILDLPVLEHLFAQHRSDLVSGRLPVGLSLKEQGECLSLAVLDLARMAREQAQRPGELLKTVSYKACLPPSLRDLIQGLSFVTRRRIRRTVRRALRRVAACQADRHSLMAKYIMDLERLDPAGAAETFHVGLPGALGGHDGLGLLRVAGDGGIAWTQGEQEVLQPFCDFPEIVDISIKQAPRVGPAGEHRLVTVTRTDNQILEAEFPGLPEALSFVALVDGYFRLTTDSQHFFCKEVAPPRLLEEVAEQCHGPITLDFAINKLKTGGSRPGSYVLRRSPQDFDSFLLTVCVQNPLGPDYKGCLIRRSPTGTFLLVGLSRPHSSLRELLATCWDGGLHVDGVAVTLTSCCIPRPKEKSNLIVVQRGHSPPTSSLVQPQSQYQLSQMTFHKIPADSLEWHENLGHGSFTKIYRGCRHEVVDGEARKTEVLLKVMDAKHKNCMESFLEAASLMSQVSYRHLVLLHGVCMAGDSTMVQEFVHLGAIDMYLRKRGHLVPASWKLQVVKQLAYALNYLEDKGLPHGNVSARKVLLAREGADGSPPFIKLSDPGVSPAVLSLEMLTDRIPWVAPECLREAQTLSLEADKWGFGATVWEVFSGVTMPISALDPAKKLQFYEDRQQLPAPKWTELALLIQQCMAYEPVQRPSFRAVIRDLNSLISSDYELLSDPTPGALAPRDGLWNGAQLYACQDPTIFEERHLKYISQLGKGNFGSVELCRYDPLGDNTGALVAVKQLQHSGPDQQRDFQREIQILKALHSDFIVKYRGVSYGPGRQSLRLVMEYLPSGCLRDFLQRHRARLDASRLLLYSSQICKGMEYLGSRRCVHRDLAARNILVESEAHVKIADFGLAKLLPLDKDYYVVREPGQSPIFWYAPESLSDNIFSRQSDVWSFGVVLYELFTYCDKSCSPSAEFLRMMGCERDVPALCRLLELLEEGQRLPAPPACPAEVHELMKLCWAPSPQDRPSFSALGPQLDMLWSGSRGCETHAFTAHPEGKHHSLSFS

[12] = biological target: T2, NADH dehydrogenase [ubiquinone] iron-sulfur protein 2, mitochondrial (Homo sapiens, UniProt O75306); assay: Affinity On-target Cellular interaction (Cellular activity assay (measurement of ATP levels in presence of complex II substrate succinate in H1299 cells)) EUB0000752a NDUFS2; format: cell-based; design: mode of action Inhibitor, recommended concentration 1 uM
T2 sequence (O75306 whole entry): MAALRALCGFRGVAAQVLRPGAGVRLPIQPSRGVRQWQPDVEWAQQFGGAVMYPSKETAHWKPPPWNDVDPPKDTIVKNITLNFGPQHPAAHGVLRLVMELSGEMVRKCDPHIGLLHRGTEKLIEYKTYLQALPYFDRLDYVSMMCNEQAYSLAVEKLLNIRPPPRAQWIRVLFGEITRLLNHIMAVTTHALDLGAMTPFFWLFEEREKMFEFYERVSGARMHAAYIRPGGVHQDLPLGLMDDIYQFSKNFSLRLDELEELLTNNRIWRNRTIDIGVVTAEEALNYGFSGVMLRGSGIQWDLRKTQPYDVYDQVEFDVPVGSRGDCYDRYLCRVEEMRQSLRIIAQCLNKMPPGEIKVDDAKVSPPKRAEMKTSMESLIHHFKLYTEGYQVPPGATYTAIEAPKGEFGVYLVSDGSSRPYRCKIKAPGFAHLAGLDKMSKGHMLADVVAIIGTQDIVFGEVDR

Protein ENL = Protein ENL (Homo sapiens, UniProt Q03111); assay: Affinity On-target Cellular interaction (NanoBRET assay (HEK293T cells)) EUB0000283b MLLT1; design: mode of action Inhibitor, recommended concentration 1 uM
[13] = biological target: Protein farnesyltransferase subunit beta (Homo sapiens, UniProt P49356); assay: Affinity On-target Cellular interaction (Western Blot (inhibition of Ras in NIH 3T3 H-Ras cells)) EUB0000289c FNTB; format: cell-based; design: mode of action Inhibitor, recommended concentration 1 uM
Sequence of Protein farnesyltransferase subunit beta (P49356 whole entry): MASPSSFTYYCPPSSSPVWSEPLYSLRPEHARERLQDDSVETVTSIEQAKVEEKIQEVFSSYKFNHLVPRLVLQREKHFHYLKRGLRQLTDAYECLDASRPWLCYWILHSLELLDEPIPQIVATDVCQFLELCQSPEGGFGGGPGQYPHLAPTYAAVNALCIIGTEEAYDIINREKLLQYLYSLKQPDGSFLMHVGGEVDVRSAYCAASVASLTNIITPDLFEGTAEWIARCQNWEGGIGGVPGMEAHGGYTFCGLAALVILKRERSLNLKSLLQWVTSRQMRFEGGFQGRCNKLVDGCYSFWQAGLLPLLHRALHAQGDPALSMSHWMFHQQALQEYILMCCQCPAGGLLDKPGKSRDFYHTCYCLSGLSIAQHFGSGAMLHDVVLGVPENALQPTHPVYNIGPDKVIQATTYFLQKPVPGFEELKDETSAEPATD

[14] = biological target: T2, NADH dehydrogenase [ubiquinone] iron-sulfur protein 2, mitochondrial; assay: Affinity On-target Cellular interaction (Cellular activity assay (measurement of ATP levels in presence of complex II substrate succinate in H1299 cells)) EUB0000748a NDUFS2; format: cell-based; design: mode of action Negative control for BAY-179, recommended concentration 1 uM
[15] = biological target: Mitogen-activated protein kinase 1 (Homo sapiens, UniProt P28482)
Sequence of Mitogen-activated protein kinase 1 (P28482 whole entry): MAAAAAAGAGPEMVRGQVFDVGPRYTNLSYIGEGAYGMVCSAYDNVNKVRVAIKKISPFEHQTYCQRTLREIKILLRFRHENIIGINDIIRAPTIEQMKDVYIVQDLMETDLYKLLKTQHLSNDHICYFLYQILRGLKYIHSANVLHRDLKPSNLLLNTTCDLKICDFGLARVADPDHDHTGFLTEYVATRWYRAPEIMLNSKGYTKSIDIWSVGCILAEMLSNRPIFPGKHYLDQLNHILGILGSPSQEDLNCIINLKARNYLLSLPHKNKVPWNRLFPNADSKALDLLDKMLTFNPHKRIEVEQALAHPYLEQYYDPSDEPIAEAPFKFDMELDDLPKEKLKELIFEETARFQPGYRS

[16] = Affinity On-target Cellular interaction (Measles Virus Inhibition Assay) EUB0000745a DHODH
[17] = biological target: Cytochrome P450 11B2, mitochondrial (Homo sapiens, UniProt P19099); assay: Affinity On-target Cellular interaction (HTRF-based assay (V79 cell lines, CisBio)) EUB0000733a CYP11B2; design: mode of action Negative control for MSD-CYP11B2, recommended concentration 100 nM
[18] = Affinity On-target Cellular interaction (Cell-based assay) EUB0000315b MGAT2

Sequence of Dual specificity protein kinase CLK1 (P49759 whole entry, the tested form may be a part): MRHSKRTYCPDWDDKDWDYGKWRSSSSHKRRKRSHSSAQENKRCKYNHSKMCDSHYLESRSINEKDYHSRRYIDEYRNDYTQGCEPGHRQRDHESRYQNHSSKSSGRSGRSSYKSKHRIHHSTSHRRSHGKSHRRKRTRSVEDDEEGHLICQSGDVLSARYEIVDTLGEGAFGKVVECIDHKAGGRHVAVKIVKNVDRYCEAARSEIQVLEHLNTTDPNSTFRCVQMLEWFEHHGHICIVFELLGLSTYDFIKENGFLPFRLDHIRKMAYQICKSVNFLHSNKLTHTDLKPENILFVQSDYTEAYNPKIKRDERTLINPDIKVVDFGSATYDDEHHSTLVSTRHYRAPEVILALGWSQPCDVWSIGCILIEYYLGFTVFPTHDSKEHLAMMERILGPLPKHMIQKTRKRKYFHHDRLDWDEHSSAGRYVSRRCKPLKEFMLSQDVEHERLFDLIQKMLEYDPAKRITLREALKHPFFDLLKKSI

**Q.** Which IC50 [1] does the source give for `COc1cc(Nc2nccc(-c3cnn4nc(OC)ccc34)n2)cc(C(F)(F)F)c1` here?
**A.** The IC50 was 165 nM.

**Q.** Which results are given for `CN1CCN(Cc2cc(NC(=O)c3ccc4c(c3)CN(c3ccccc3)CC4)cc(C(F)(F)F)c2)CC1`?
**A.** IC50 [2]: 26600 nM; IC50 [3]: 6800 nM; IC50 [4]: 8720 nM; IC50 [5]: 19300 nM

**Q.** Which IC50 (Protein AF-9 [6]) does the source give for `CN(C)C(=O)c1ccc(-c2cc(C(=O)N[C@@H]3CCc4ccccc43)no2)cc1O` here?
**A.** The IC50 was 760 nM.

**Q.** For `C=CC(=O)Nc1ccc2[nH]c(=O)n(C3CCN(C(=O)c4ccc(-c5nc6cc[nH]c(=O)c6cc5-c5ccccc5)cc4)CC3)c2c1`, which IC50 [7] is on record?
**A.** The IC50 was 18000 nM.

**Q.** What about the IC50 [8] of the same compound?
**A.** Its IC50 is 8300 nM.

**Q.** And the IC50 [9]?
**A.** The IC50 was 1900 nM.

**Q.** For `CN(C)C(=O)c1ccc(-c2cc(C(=O)N(C)C3CCCC3)no2)cc1O`, which IC50 (Protein AF-9 [10]) is on record?
**A.** Its IC50 is > 30000 nM.

**Q.** For `CN(C)C(=O)/C(C#N)=C/c1ccc(-c2nc3cnc4c(ccn4C)c3n2C2CCCCC2)o1`, which IC50 [11] is on record?
**A.** Its IC50 is > 10000 nM.

**Q.** Which IC50 [12] does the source give for `c1ccc2oc(-c3csc(C4CCN(Cc5nc6ncccc6[nH]5)CC4)n3)cc2c1` here?
**A.** Its IC50 is 79 nM.

**Q.** For `C[C@H]1CCCN1Cc1nc2cc(NC(=O)c3ccc4cnccc4c3)ccc2[nH]1`, which IC50 (Protein ENL) is on record?
**A.** Its IC50 is 500 nM.

**Q.** For `Cn1cncc1[C@](O)(COc1ccc(C#N)cc1-c1ccc(OC(F)(F)F)cc1)c1ccc(C#N)cc1` [ABT-100], which EC50 [13] is on record?
**A.** Its EC50 is 0.73 nM.

**Q.** With `Cn1c(-c2csc(C3CCN(CC4=NC5N=CC=CC5N4)CC3)n2)nc2ccccc21` (centres undefined) [BAY-070] as the compound, how does the IC50 [14] read?
**A.** Its IC50 is > 30000 nM.

**Q.** Which IC50 [15] does the source give for `C[C@@H](NC(=O)Nc1cc2[nH]ncc2c(CO)n1)c1ccccc1` [ERKi] here?
**A.** The IC50 was 850 nM.

**Q.** For `Cc1c(Oc2ccc(F)cc2)c(OC(C)C)nn1-c1ccc(C2CC2)cn1` [IPP/CNRS-A019], which IC50 [16] is on record?
**A.** The IC50 was 1200 nM.

**Q.** Which IC50 [17] does the source give for `FC(F)(F)c1ccc2c(c1)nc(-c1cccnc1)n2C1CC1` [MSD-CYP11B2-Negative-control] here?
**A.** The IC50 was > 10000 nM.

**Q.** With `Cn1nc(C(F)(F)F)cc1-c1cnc(N2CCc3cc(S(=O)(=O)Nc4c(F)cc(Cl)cc4F)cc(N4CCCC4=O)c32)nc1` [TP-020] as the compound, how does the IC50 [18] read?
**A.** Its IC50 is 160 nM.
